What all share (assay): KINOMEscan (ScanMAX) kinase profiling
What all share (assay type): binding

The target of assay [1] is T1, panel of 468 kinases (Homo sapiens, UniProt Q96PN8).
T1 construct: purchased KINOMEscan (ScanMAX) service
T1 sequence (Q96PN8 1-268): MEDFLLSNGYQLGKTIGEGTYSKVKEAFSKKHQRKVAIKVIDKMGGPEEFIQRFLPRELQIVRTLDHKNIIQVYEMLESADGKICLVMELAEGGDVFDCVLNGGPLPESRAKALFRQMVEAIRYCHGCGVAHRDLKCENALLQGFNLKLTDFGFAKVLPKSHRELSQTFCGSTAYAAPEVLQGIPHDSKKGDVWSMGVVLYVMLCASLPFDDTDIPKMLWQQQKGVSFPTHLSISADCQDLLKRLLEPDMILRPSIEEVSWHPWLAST
Conditions: TSSK3; 1 μM; read-out: % control.

The target of assay [2] is T2, panel of 468 kinases (Homo sapiens, UniProt Q13554).
T2 construct: purchased KINOMEscan (ScanMAX) service
Conditions: CAMK2B; 1 μM; read-out: % control.

The target in assay [3] is T3, panel of 468 kinases (Plasmodium falciparum, UniProt P61075).
T3 construct: purchased KINOMEscan (ScanMAX) service
Conditions: PFPK5(P.falciparum); 1 μM; read-out: % control.

Assay [4] concerns the target T4, panel of 468 kinases (Homo sapiens, UniProt O00238).
T4 construct: purchased KINOMEscan (ScanMAX) service
Conditions: BMPR1B; 1 μM; read-out: % control.

The target in assay [5] is T5, panel of 468 kinases (Homo sapiens, UniProt P42336, M1043I).
T5 construct: purchased KINOMEscan (ScanMAX) service
As to conditions: PIK3CA(M1043I); 1 μM; read-out: % control.

The target of assay [6] is T6, panel of 468 kinases (Homo sapiens, UniProt Q13627).
T6 construct: purchased KINOMEscan (ScanMAX) service
As to conditions: DYRK1A; 1 μM; read-out: % control.

In assay [7] the target is T7, panel of 468 kinases (Homo sapiens, UniProt Q12852).
T7 construct: purchased KINOMEscan (ScanMAX) service
T7 sequence (Q12852 1-859): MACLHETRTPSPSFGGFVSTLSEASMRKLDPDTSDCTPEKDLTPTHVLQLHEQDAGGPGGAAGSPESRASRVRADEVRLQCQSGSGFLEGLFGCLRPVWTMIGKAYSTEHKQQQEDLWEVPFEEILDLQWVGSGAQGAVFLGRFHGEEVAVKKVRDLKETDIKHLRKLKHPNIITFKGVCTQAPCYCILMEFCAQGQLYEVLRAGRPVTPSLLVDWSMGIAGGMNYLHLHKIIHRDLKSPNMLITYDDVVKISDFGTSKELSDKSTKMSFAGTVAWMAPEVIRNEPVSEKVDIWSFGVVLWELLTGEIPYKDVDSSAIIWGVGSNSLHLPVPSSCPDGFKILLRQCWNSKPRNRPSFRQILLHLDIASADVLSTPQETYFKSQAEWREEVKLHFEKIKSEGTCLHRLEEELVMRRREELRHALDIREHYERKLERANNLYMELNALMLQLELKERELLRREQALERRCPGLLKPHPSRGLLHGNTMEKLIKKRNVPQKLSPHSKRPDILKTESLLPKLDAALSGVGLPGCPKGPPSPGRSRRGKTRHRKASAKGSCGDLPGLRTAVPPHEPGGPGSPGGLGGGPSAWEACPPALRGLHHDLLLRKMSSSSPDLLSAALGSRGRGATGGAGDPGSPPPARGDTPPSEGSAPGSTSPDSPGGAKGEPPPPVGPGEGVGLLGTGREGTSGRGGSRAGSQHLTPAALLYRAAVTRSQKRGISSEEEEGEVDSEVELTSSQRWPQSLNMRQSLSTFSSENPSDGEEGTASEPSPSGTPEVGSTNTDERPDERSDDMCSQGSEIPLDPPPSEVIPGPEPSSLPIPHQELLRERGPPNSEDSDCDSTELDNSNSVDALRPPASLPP
Conditions: DLK; 1 μM; read-out: % control.

Assay [8] deals with T8, panel of 468 kinases (Homo sapiens, UniProt Q9UM73, C1156Y).
T8 construct: purchased KINOMEscan (ScanMAX) service
As to conditions: ALK(C1156Y); 1 μM; read-out: % control.

In assay [9] the target is T9, panel of 468 kinases (Homo sapiens, UniProt P00533, G719S).
T9 construct: purchased KINOMEscan (ScanMAX) service
Conditions: EGFR(G719S); 1 μM; read-out: % control.

For assay [10], the target named is T10, panel of 468 kinases (Homo sapiens, UniProt P22607, G697C).
T10 construct: purchased KINOMEscan (ScanMAX) service
As to conditions: FGFR3(G697C); 1 μM; read-out: % control.

The target of assay [11] is T11, panel of 468 kinases (Homo sapiens, UniProt P10721, V559D/V654A).
T11 construct: purchased KINOMEscan (ScanMAX) service
As to conditions: KIT(V559D,V654A); 1 μM; read-out: % control.

The target in assay [12] is T12, panel of 468 kinases (Homo sapiens, UniProt Q13177).
T12 construct: purchased KINOMEscan (ScanMAX) service
As to conditions: PAK2; 1 μM; read-out: % control.

Assay [13] has as its target T13, panel of 468 kinases (Homo sapiens, UniProt O43353).
T13 construct: purchased KINOMEscan (ScanMAX) service
As to conditions: RIPK2; 1 μM; read-out: % control.

Assay [14] concerns the target T14, panel of 468 kinases (Homo sapiens, UniProt P29376).
T14 construct: purchased KINOMEscan (ScanMAX) service
As to conditions: LTK; 1 μM; read-out: % control.

The target of assay [15] is T15, panel of 468 kinases (Homo sapiens, UniProt P31152).
T15 construct: purchased KINOMEscan (ScanMAX) service
Conditions: ERK4; 1 μM; read-out: % control.

Assay [16] deals with T16, panel of 468 kinases (Homo sapiens, UniProt P21127).
T16 construct: purchased KINOMEscan (ScanMAX) service
Conditions: CDC2L1; 1 μM; read-out: % control.

T9 sequence (P00533 25-1210 G719S): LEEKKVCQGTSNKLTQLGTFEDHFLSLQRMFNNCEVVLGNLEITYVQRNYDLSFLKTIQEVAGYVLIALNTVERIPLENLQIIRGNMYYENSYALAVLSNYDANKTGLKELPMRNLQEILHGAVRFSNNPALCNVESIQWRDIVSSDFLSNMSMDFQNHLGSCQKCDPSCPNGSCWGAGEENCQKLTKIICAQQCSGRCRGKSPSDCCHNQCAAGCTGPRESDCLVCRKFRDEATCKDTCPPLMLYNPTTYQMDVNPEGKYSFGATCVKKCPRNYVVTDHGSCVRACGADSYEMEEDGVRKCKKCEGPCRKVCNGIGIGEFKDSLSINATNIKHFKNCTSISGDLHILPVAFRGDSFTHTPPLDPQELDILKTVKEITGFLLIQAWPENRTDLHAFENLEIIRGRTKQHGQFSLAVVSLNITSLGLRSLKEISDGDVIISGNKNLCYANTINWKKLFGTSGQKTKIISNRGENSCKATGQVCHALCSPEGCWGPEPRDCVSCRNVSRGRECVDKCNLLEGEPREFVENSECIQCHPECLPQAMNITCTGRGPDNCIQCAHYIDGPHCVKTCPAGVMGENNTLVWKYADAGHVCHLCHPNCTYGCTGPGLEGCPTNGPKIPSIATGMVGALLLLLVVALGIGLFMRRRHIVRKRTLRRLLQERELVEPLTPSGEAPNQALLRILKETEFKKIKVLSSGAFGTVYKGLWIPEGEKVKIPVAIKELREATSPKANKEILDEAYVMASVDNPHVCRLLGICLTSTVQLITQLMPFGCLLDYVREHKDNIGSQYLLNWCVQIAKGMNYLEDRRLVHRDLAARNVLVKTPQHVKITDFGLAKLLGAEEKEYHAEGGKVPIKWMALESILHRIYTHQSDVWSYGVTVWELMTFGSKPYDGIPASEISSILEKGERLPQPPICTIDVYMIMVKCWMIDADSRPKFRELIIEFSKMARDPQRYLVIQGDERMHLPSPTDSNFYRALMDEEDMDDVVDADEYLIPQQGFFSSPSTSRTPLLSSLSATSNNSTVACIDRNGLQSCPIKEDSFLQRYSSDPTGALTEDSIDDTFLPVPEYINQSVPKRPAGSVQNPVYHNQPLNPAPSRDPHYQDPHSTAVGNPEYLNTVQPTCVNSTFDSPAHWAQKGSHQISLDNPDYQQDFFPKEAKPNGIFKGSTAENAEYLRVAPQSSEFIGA
T4 sequence (O00238 14-502): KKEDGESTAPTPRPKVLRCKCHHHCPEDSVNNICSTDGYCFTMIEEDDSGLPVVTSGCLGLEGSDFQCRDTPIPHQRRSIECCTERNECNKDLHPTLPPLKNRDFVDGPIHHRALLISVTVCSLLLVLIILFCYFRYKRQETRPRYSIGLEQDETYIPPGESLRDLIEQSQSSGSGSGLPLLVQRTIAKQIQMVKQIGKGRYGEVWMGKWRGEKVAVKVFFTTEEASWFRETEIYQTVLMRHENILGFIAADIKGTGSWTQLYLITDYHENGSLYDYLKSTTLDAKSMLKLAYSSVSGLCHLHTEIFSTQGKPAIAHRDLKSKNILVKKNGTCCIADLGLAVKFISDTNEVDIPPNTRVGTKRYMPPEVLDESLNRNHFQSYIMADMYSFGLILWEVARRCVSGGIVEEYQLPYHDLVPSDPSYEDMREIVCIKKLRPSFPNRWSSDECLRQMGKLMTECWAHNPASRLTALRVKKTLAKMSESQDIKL
T16 sequence (P21127 whole entry): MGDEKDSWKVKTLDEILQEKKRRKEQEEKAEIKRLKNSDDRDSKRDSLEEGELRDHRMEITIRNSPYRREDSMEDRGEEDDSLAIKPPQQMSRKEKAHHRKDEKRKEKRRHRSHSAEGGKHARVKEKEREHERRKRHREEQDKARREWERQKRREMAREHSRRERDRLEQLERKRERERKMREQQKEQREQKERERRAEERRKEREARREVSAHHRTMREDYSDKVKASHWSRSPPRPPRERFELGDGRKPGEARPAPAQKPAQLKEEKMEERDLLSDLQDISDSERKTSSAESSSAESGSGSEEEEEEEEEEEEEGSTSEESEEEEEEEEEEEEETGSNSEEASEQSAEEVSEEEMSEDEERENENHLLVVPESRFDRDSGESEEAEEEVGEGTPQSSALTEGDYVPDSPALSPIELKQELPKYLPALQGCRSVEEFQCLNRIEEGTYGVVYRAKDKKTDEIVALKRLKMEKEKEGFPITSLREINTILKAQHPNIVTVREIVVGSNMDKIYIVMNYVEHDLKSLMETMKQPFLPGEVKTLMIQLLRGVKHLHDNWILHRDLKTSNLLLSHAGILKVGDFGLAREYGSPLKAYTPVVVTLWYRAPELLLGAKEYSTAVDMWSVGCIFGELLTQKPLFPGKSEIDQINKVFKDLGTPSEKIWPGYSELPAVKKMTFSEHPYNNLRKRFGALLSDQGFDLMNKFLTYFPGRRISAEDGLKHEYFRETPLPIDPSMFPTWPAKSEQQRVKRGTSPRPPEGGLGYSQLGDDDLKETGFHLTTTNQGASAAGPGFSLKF
T2 sequence (Q13554 whole entry): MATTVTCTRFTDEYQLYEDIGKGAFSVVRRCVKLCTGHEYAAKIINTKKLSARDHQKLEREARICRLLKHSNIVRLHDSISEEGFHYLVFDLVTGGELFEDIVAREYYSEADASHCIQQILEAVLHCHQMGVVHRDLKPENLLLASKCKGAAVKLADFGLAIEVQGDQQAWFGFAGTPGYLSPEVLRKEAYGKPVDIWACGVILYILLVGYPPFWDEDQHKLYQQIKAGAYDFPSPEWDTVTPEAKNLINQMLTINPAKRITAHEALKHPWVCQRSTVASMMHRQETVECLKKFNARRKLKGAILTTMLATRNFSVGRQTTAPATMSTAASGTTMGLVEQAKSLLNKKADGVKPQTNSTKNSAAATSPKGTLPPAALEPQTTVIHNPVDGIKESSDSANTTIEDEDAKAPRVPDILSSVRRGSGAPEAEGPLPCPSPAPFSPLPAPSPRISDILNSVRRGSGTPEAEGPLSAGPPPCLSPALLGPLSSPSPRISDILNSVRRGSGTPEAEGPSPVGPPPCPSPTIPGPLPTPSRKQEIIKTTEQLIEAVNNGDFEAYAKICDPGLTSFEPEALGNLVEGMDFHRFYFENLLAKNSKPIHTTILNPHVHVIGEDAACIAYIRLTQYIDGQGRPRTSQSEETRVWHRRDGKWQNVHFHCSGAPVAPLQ
T10 sequence (P22607 23-806 G697C): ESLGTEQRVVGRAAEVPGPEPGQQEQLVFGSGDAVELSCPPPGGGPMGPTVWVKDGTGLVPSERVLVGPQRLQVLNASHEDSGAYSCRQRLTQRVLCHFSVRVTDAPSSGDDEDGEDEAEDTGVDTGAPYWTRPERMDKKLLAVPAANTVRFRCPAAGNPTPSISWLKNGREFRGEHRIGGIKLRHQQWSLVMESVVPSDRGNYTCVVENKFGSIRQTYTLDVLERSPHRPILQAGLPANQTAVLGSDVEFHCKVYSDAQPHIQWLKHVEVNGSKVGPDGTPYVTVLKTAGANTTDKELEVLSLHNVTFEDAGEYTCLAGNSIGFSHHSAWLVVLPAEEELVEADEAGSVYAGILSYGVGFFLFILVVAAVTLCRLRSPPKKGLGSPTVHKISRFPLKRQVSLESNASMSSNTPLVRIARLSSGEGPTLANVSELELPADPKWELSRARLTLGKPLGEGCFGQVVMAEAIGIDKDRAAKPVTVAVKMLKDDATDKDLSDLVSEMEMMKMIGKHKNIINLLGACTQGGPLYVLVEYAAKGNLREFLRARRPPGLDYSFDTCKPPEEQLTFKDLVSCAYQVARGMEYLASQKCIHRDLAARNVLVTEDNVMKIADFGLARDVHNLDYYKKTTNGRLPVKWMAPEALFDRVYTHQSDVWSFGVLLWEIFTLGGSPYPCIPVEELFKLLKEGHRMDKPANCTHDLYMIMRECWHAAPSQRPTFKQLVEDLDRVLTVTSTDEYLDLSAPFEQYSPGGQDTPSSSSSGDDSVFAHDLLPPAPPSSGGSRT
T15 sequence (P31152 whole entry): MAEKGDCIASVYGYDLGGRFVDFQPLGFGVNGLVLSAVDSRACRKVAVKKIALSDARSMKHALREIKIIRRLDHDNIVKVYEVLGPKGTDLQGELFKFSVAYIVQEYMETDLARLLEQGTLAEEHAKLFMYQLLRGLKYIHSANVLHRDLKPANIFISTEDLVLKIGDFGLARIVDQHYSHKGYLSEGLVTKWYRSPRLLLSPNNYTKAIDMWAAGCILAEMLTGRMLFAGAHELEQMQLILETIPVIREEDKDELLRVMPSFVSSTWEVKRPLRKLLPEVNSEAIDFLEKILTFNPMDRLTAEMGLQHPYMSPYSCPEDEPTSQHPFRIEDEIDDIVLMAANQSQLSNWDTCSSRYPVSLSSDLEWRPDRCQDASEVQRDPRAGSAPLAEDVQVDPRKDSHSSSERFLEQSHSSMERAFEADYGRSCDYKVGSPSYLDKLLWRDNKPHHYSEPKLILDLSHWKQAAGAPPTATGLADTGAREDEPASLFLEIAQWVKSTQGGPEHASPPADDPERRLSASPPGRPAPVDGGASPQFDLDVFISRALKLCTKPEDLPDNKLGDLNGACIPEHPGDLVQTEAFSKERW
T13 sequence (O43353 whole entry): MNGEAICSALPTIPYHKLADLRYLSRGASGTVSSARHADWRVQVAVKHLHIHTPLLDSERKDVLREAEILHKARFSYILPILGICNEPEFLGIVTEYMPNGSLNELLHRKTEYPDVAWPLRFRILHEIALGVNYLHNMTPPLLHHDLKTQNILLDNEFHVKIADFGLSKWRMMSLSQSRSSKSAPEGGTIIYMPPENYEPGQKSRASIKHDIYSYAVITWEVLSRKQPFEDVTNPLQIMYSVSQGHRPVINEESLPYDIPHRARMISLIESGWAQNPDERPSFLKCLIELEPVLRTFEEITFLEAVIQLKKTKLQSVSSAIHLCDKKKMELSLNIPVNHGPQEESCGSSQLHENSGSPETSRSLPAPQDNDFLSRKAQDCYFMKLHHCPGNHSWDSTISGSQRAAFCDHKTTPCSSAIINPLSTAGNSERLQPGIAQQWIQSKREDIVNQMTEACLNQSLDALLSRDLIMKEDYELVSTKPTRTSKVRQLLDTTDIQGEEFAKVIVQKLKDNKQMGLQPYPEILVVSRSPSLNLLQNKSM

For the compound `CNc1nc(Nc2ccc(S(=O)(=O)N3CCC(N4CCOCC4)CC3)cc2OC)nc2[nH]cc(Cl)c12` [Compound 12, 5-chloro-N2-(2-methoxy-4-((4-morpholinopiperidin-1-yl)sulfonyl)phenyl)-N4-methyl-7H-pyrrolo[2,3-d]pyrimidine-2,4-diamine], the remaining binding at 1 µM at panel of 468 kinases [1] was determined as 100%; at panel of 468 kinases [2] it was 100%; at panel of 468 kinases [3], 64%; at panel of 468 kinases [4], 76%; at panel of 468 kinases [5] it was 98%; at panel of 468 kinases [6] it was 14%. Moreover, the remaining binding at 1 µM at panel of 468 kinases [7] amounted to 95%; at panel of 468 kinases [8], 2.7%; on panel of 468 kinases [9] it was 99%; on panel of 468 kinases [10] it was 100%; on panel of 468 kinases [11], 100%; at panel of 468 kinases [12], 100%. The remaining binding at 1 µM at panel of 468 kinases [13] was determined as 100%; at panel of 468 kinases [14] it was 22%; on panel of 468 kinases [15] it was 100%; on panel of 468 kinases [16] it was 100%.

As for `CNc1nc(Nc2ccc(C(=O)N3CCC(N4CCOCC4)CC3)c3c2OCO3)nc2[nH]cc(Cl)c12` [Compound 75, (7-((5-chloro-4-(methylamino)-7H-pyrrolo[2,3-d]pyrimidin-2-yl)amino)benzo[d][1,3]dioxol-4-yl)(4-morpholinopiperidin-1-yl)methanone], the remaining binding at 1 µM at panel of 468 kinases [1] turned out to be 100%; on panel of 468 kinases [2] it was 94%; at panel of 468 kinases [3], 65%; on panel of 468 kinases [4], 67%; at panel of 468 kinases [5], 99%; at panel of 468 kinases [6] it was 8.9%. For the same compound, the remaining binding at 1 µM was 100% at panel of 468 kinases [7]; 1.2% on panel of 468 kinases [8]; 100% at panel of 468 kinases [9]; 100% on panel of 468 kinases [10]; 94% at panel of 468 kinases [11]; 100% at panel of 468 kinases [12]. For the same compound, the remaining binding at 1 µM was 100% on panel of 468 kinases [13], 19% at panel of 468 kinases [14], 100% at panel of 468 kinases [15] and 100% on panel of 468 kinases [16].

Turning to `CNc1nc(Nc2ccc(P3(=O)CCN(C4CCOCC4)CC3)cc2OC)nc2[nH]cc(Cl)c12` [Compound 77, 4-(4-((5-chloro-4-(methylamino)-7H-pyrrolo[2,3-d]pyrimidin-2-yl)amino)-3-methoxyphenyl)-1-(tetrahydro-2H-pyran-4-yl)-1,4-azaphosphinane 4-oxide], the remaining binding at 1 µM was 100% on panel of 468 kinases [1]; 92% on panel of 468 kinases [2]; 75% at panel of 468 kinases [3]; 80% at panel of 468 kinases [4]; 96% at panel of 468 kinases [5]; 4.7% at panel of 468 kinases [6]. The remaining binding at 1 µM was 100% at panel of 468 kinases [7]; 1.3% on panel of 468 kinases [8]; 100% at panel of 468 kinases [9]; 100% on panel of 468 kinases [10]; 96% on panel of 468 kinases [11]; 100% at panel of 468 kinases [12]. Moreover, the remaining binding at 1 µM at panel of 468 kinases [13] was determined as 100%; on panel of 468 kinases [14], 21%; at panel of 468 kinases [15], 100%; at panel of 468 kinases [16], 100%.

The values above are taken from patent publication US12479847B2 (DANA-FARBER CANCER INSTITUTE, INC., priority 2019, dated 2025).
